The numbers were not newly measured in article PMC5111365 (The Analyst, 2016), which cites them from elsewhere.

Data set [1] addresses Abl-1 human recombinant protein (Homo sapiens, UniProt P00519). The following applies: 12 nM kinase; data from previous work.
For data set [2] the following is noted: 3 mg mL^-1 total protein, data from previous work.

No end group written: not given here. *: point of attachment. 5FAM = O=C1OC2(c3ccc(O)cc3Oc3cc(O)ccc32)c2ccc(C(=O)*)cc21

Sequence of Abl-1 human recombinant protein (P00519 whole entry): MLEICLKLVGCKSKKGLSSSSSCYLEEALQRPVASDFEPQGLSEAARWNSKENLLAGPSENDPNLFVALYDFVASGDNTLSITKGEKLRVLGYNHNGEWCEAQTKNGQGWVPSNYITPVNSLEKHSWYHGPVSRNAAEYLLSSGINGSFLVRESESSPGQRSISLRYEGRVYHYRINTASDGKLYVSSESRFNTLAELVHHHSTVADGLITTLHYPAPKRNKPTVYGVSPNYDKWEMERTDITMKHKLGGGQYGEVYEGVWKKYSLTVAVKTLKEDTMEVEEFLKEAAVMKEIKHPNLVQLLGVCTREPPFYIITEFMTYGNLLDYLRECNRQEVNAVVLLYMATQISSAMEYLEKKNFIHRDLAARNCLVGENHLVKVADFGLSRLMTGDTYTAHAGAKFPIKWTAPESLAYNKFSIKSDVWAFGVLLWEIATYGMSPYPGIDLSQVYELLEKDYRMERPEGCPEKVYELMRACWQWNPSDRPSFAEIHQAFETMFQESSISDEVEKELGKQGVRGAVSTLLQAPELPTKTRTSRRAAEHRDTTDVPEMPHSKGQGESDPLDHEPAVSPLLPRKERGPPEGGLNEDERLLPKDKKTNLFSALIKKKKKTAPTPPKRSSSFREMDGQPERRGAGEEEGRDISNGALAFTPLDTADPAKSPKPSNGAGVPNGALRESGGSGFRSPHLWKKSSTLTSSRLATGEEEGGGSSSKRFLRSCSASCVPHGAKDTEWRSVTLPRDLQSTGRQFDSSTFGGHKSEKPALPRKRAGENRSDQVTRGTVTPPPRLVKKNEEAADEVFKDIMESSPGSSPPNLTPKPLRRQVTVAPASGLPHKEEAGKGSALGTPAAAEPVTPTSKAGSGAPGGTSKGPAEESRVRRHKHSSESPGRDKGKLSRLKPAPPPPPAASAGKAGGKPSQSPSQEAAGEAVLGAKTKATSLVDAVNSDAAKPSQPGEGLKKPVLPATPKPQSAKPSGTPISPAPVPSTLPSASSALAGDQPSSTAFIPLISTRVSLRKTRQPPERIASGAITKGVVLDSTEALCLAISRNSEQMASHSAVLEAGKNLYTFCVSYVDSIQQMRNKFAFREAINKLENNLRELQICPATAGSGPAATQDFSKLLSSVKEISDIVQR

For the substance 5FAM-GGAYAAPFKKKA [III-67B], the “t50% P, time required for 50% of the peptide to be phosphorylated by Abl-1 kinase” value in data set [1] is 190 min. In addition, in data set [2], the “t1/2, time at which 50% of the peptide was degraded in the cytosolic lysate” value is 1.3 min.
